Our source for the IC50 values is ChEMBL document CHEMBL3861963, “Hypocriols A-F, Heterodimeric Botryane Ethers from Hypocrea sp., an Insect-Associated Fungus” (J Nat Prod, 2016).

Holding throughout (format): functional, cell-based
The nature of experiment [1]: Antiproliferative activity against human MCF7 cells measured after 24 hrs by CCK8 assay. As to conditions: MCF7, 24 h. In general terms: Tetrazolium dyes change colour on reduction, which living cells bring about.
Experiment [2] can be described thus: Antiproliferative activity against human HeLa cells measured after 24 hrs by CCK8 assay.
The nature of experiment [3]: Antiproliferative activity against human HCT116 cells measured after 24 hrs by CCK8 assay. As to conditions: HCT-116, 24 h.
Experiment [4] is described as follows: Antiproliferative activity against human A549 cells measured after 24 hrs by CCK8 assay. As to conditions: A549, 24 h.

As for `CC(=O)O[C@H]1C[C@@H](C)[C@@H]2[C@@H](OC[C@@]3(C)CC(C)(C)c4ccc(C)c(CO)c43)OC[C@@]3(C)CC(C)(C)[C@H]1[C@]23O`, the IC50 (in general, the point on the concentration scale where inhibition reaches its midpoint) in experiment [1] was 48.3 µM; in experiment [2] it was 43.6 µM; in experiment [3] it was 23 µM.

`CC(=O)O[C@H]1C[C@@H](C)[C@@H]2[C@@H](OCc3c(C)ccc4c3[C@@](C)(CO)CC4(C)C)OC[C@@]3(C)CC(C)(C)[C@H]1[C@]23O`: the IC50 stood at 15.3 µM in experiment [4], 23.6 µM in experiment [1], 4.6 µM in experiment [2] and 2.7 µM in experiment [3].

For `CC(=O)O[C@H]1C[C@@H](C)[C@@H]2[C@@H](O)[C@H](O[C@H]3OC[C@@]4(C)CC(C)(C)c5ccc(C)c3c54)[C@@]3(C)CC(C)(C)[C@H]1[C@]23O`, the IC50 in experiment [4] was 25.3 µM; in experiment [1] it was 19.7 µM; in experiment [2] it was 7.7 µM; in experiment [3], 18.6 µM.

Compound `CC(=O)O[C@H]1C[C@@H](C)[C@@H]2[C@@H](OC3OC[C@@]4(C)CC(C)(C)c5ccc(C)c3c54)[C@H](O)[C@@]3(C)CC(C)(C)[C@H]1[C@]23O` (some centres undefined) gave an IC50 in experiment [2] of 3.1 µM.

Consider `CC(=O)O[C@H]1C[C@@H](C)[C@@H]2[C@@H](O)[C@H](O[C@@H]3OC[C@@]4(C)CC(C)(C)c5ccc(C)c3c54)[C@@]3(C)CC(C)(C)[C@H]1[C@]23O`, for which the IC50 in experiment [1] is 48.3 µM; in experiment [2] it was 11.8 µM; in experiment [3] it was 17.5 µM.

On to `CO[C@H]1O[C@@H](O[C@H]2[C@H](O)[C@H]3[C@H](C)C[C@H](OC(C)=O)[C@H]4C(C)(C)C[C@@]2(C)[C@@]34O)[C@@]2(C)CC(C)(C)c3ccc(C)c1c32`, for which the IC50 in experiment [4] was 46.7 µM; in experiment [1] it was 34.2 µM; in experiment [2] it was 3.8 µM; in experiment [3] it was 18.8 µM.
